# Entries after “also recorded” stand apart in the source; their conditions may differ. Like-named read-outs stand apart in the source and are kept apart here.
# What was measured:
# Ebola VLP = assay type: cell-based, Ebola virus
# fibroblasts = assay type: cell-based
# recombinant cathepsin L = recombinant cathepsin L (Homo sapiens, UniProt P07711); test: Cathepsin L assay; assay type: biochemical; details: 10 μM and dose-response
# recombinant cathepsin B = recombinant cathepsin B (Homo sapiens, UniProt P07858); test: Cathepsin B assay; assay type: biochemical; details: 10 μM and dose-response
# NPC1 protein = assay type: cell-based
# EBOV = details: cited from earlier work
# [1] = read-out: IC50 of previously reported EBOV inhibitors in vitro
# recombinant cathepsin L, sequence (P07711 114-333): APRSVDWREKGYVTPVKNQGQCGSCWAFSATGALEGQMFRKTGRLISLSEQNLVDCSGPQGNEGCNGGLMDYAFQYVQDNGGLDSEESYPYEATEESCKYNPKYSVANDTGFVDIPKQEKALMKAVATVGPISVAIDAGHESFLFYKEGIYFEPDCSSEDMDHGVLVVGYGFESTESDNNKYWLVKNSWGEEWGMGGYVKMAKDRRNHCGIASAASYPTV
SMILES,LysoTracker staining (enlargement of lysosome size) (fibroblasts),also measured
COc1cc2nc(N3CCCN(C)CC3)nc(NC3CCN(Cc4ccccc4)CC3)c2cc1OC [BIX-01294],increased LysoTracker staining,Potency (Ebola VLP): nanomolar range; also recorded: sub-micromolar
COc1cc2c(Oc3ccc4[nH]c(C)cc4c3F)ncnc2cc1OCCCN1CCCC1 [Cediranib],increased LysoTracker staining,–
CN1[C@@H]2CC[C@H]1C[C@@H](OC1c3ccccc3CCc3ccccc31)C2 [Deptropine],increased LysoTracker staining,Inhibition of enzymatic activity of cathepsin L (recombinant cathepsin L): inhibited; also recorded: blocking cathepsin L activity
CC(C)(C)c1ccc(C(=O)CCCN2CCC(OC(c3ccccc3)c3ccccc3)CC2)cc1 [Ebastine],increased LysoTracker staining,–
CN(C)c1ccccc1CN1CCCN(Cc2ccccc2N(C)C)C1c1ccncc1 [GANT61],increased LysoTracker staining; also recorded: caused enlargement of lysosomes,Inhibition of enzymatic activity of cathepsin L (recombinant cathepsin L): inhibited; Inhibition of enzymatic activity of cathepsin B (recombinant cathepsin B): inhibited
CC(=O)N(C)C1(c2ccccc2)CCN(CCC[C@]2(c3ccc(Cl)c(Cl)c3)CCCN(C(=O)c3ccccc3)C2)CC1 [Osanetant],increased LysoTracker staining; also recorded: induces the enlargement of lysosomes,–
COc1ccc2cc1Oc1ccc(cc1)C[C@H]1c3cc(c(OC)cc3CCN1C)Oc1c(OC)c(OC)cc3c1[C@H](C2)N(C)CC3 [Tetrandrine],increased LysoTracker staining,–
"CCN(CC)CCO[C@H]1CC[C@@]2(C)C(=CC[C@@H]3[C@@H]2CC[C@]2(C)C(=O)CC[C@@H]32)C1.Cl [U18666A, 3-β-(2-[diethylamino]ethoxy)-androst-5-en-17-one, monohydrochloride]",increased LysoTracker staining,"Cholesterol accumulation (filipin staining), impairment of NPC1 protein function (NPC1 protein): increased filipin staining"
CC[C@]1(O)C[C@@H]2CN(CCc3c([nH]c4ccccc34)[C@@](C(=O)OC)(c3cc4c(cc3OC)N(C)[C@H]3[C@@](O)(C(=O)OC)[C@H](OC(C)=O)[C@]5(CC)C=CCN6CC[C@]43[C@@H]65)C2)C1 [Vinblastine],–,IC50 (EBOV; read-out: Published Compound (IC50)): 48 nM
CC[C@]1(O)C[C@@H]2CN(CCc3c([nH]c4ccccc34)[C@@](C(=O)OC)(c3cc4c(cc3OC)N(C)[C@H]3[C@@](O)(C(N)=O)[C@H](O)[C@]5(CC)C=CCN6CC[C@]43[C@@H]65)C2)C1 [Vindesine],–,Potency (Ebola VLP): nanomolar range
Cc1ccc(CN2CCCN(C)C3(CCN(C)CC3)C2)cc1C [ZINC67869167],increased LysoTracker staining; also recorded: induced enlargement of lysosomes,–
Cc1[nH]c2c(CN3CC(CO)C(CN4CCCC4)C3)cccc2c1C (centres unmarked) [ZINC91973695],increased LysoTracker staining; also recorded: induced enlargement of lysosomes,–
Cc1cn(-c2cc(NC(=O)c3ccc(C)c(Nc4nccc(-c5cccnc5)n4)c3)cc(C(F)(F)F)c2)cn1 [nilotinib],–,IC50 (EBOV; [1]): 24300 nM
COC(=O)Nc1nc2ccc(C(=O)c3cccs3)cc2[nH]1 [nocodazole],–,IC50 of previously reported EBOV inhibitors in vitro (EBOV): sub-micromolar
CCN(CC)CCNC(=O)c1c(C)[nH]c(/C=C2\C(=O)Nc3ccc(F)cc32)c1C [sunitinib],–,IC50 (EBOV; [1]): 1910 nM

# Reference: publication PMC6548547 (Journal of medicinal chemistry, 2018)
